Laboratory results as given in publication PMC11762167, “G Protein-Coupled Receptor 17 Inhibits Glucagon-like Peptide-1 Secretion via a Gi/o-Dependent Mechanism in Enteroendocrine Cells” (Biomolecules, 2024).

Assays:
GLUTag cells = test: Endpoint cAMP (HTRF) in control-transduced GLUTag cells; assay type: cell-based, murine; design: Mean Diff. of cAMP, MDL29,951 vs FSK alone (Tukey): unit not given here; conditions: for Mean Diff. of cAMP, MDL29,951 vs FSK alone (Tukey): Ctl
Experimental: (§1) GLUTag cells were maintained in Dulbecco’s Modified Eagle Medium (DMEM) supplemented with 10% fetal bovine serum and 1% penicillin–streptomycin in a humidified incubator at 37 °C and 5% CO2. For adenovirus transduction, GLUTag cells were seeded into poly-D-lysine coated 96-well plates or 4-chamber slides. The next day, cells were transduced with adenoviruses (100–1250 viral particles per cell at time of seeding) as indicated. After 24–30 h, adenovirus-containing media was changed to serum-free growth media for overnight serum starvation. The following day, GLUTag cells were used for cAMP or calcium signaling assays, GLP-1 secretion assays, or immunostaining and imaging.
(§2) Endpoint cAMP measurements were conducted as follows. GLUTag cells were seeded into poly-D-lysine-coated 96-well plates and transduced with adenovirus as specified above and then tested for cAMP signaling. Medium was removed and cells were washed with cAMP stimulation buffer (Hanks’ balanced salt solution (HBSS), 20 mM HEPES, pH 7.4) and then incubated in cAMP stimulation buffer for 30 min at 37 °C and 5% CO2. Cells were then treated for 30 min with agonist and forskolin in the presence of 500 µM IBMX at 37 °C and 5% CO2. Stimulation buffer was then decanted, and cAMP lysis buffer (50 mM HEPES, 10 mM CaCl2, 0.35% Triton X-100, and 500 µM IBMX) was added and shaken at 700 rpm for 1 h. Lysate was transferred to a 384-well plate, and the cAMP levels were quantified using the Cisbio HTRF cAMP (Gi kit; Revvity, Waltham, MA, USA) according to the manufacturer’s protocol.

hGPR17S = target: T1, hGPR17S (Homo sapiens, UniProt Q13304); test: Membrane β-arrestin recruitment in HEK293 cells transfected with hGPR17S; assay type: cell-based
T1 construct: host or cells: HEK293 cells (ATCC CRL-1573), transient transfection
T1 sequence (Q13304 29-367): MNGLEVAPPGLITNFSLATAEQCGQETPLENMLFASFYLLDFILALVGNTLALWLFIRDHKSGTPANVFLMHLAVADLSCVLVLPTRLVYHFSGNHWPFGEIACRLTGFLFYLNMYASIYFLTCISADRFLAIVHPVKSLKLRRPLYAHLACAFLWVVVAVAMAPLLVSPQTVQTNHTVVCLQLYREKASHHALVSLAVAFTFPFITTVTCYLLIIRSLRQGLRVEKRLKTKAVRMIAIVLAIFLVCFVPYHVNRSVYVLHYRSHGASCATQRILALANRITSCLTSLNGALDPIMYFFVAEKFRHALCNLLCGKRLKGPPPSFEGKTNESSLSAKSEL
Experimental: Membrane β-arrestin recruitment measurements were conducted using a luminescent membrane β-arrestin recruitment reporter assay. HEK293 cells were seeded into white, opaque, poly-D-lysine-coated 96-well plates and transiently transfected using Lipofectamine 3000 (Thermo Fisher Scientific, Waltham, MA, USA) according to the manufacturer’s protocol on the following day. At 48 h post-transfection, cells were washed twice with assay buffer (HBSS, 20 mM HEPES, pH 7.4) and allowed to equilibrate to room temperature for 15 min in assay buffer. Cells were then loaded with coelenterazine h (Nanolight Technology, Prolume Ltd., Lakeside, AZ, USA; 5 µM final concentration) for 5 min in the dark. Luminescence was read using a SpectraMax iD3 (Molecular Devices) with 1 s integration time. Baseline luminescence was read every 2 min for 6 min. Agonist was added and then luminescence was read every 2 min for 30 min.

hGPR17L = hGPR17L (Homo sapiens, UniProt Q13304); test: Endpoint cAMP (HTRF) in GLUTag cells expressing hGPR17L; assay type: cell-based; design: host or cells: GLUTag cells (murine enteroendocrine line), adenoviral transduction; conditions: for Predicted (LS) mean diff.: Fig 2B, Forskolin
hGPR17L, sequence (Q13304 whole entry): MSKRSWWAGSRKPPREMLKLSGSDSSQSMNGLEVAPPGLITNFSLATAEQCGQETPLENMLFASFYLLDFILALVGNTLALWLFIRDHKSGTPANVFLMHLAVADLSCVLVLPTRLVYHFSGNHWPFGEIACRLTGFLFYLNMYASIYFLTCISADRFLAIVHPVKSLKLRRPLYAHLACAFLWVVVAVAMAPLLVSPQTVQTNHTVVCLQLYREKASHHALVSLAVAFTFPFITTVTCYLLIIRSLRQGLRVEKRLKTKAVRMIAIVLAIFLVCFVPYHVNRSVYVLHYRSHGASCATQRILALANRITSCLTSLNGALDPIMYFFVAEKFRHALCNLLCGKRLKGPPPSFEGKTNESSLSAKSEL
Experimental: as §1, §2

[1] = 10 µM forskolin, GLUTag hGPR17L

O=C(O)CCc1c(C(=O)O)[nH]c2cc(Cl)cc(Cl)c12 [MDL29,951]
effect on PGE2-stimulated cAMP levels (GLUTag cells; 300 nM PGE2, control transduction condition): no effect
effect on cAMP levels upon PMA treatment (GLUTag cells; 300 nM PMA, control-transduced cells): no effect
Mean Diff. of cAMP, MDL29,951 vs FSK alone (Tukey) (GLUTag cells; log [MDL29,951] (M) -4.0): 0.00975
Mean Diff. of cAMP, MDL29,951 vs FSK alone (Tukey) (GLUTag cells; log [MDL29,951] (M) -4.6): 0.066
Mean Diff. of cAMP, MDL29,951 vs FSK alone (Tukey) (GLUTag cells; log [MDL29,951] (M) -5.2): 0.1185
Mean Diff. of cAMP, MDL29,951 vs FSK alone (Tukey) (GLUTag cells; log [MDL29,951] (M) -5.8): 0.114
Mean Diff. of cAMP, MDL29,951 vs FSK alone (Tukey) (GLUTag cells; log [MDL29,951] (M) -6.4): 0.183
Mean Diff. of cAMP, MDL29,951 vs FSK alone (Tukey) (GLUTag cells; log [MDL29,951] (M) -7.0): 0.173
Mean Diff. of cAMP, MDL29,951 vs FSK alone (Tukey) (GLUTag cells; log [MDL29,951] (M) -7.6): 0.2335
Mean Diff. of cAMP, MDL29,951 vs FSK alone (Tukey) (GLUTag cells; log [MDL29,951] (M) -8.2): 0.2168
Mean Diff. of cAMP, MDL29,951 vs FSK alone (Tukey) (GLUTag cells; log [MDL29,951] (M) -8.8): 0.0115
Mean Diff. of cAMP, MDL29,951 vs FSK alone (Tukey) (GLUTag cells; log [MDL29,951] (M) -9.4): -0.09325
effect on forskolin-stimulated cAMP (GLUTag cells; control-transduced cells, 10 µM forskolin): no effect
β-arrestin Emax (Peak ΔRLU/RLU) (hGPR17S): 0.50±0.04
β-arrestin Potency (pEC50) (hGPR17S): 6.62±0.08
EC50 (hGPR17S; read-out: β-arrestin Potency EC50): 240 nM
effect on forskolin-stimulated cAMP upon treatment with Gq inhibitor YM-254890 (hGPR17L; 100 nM YM-254890, 10 µM forskolin): inhibited
inhibition of forskolin-stimulated cAMP in the presence of PTX (hGPR17L; 100 ng/mL PTX, 10 µM forskolin): unable to inhibit
IC50 (hGPR17L; 10 µM forskolin, 500 µM IBMX, GLUTag hGPR17L, read-out: IC50, inhibition of forskolin-stimulated cAMP): 29 nM
pEC50, reversal of inhibition of forskolin-stimulated cAMP (hGPR17L; [1]): 4.94 ± 0.09
pIC50, inhibition of forskolin-stimulated cAMP (hGPR17L; [1]): 7.54 ± 0.11
EC50 (hGPR17L; 10 µM forskolin, GLUTag hGPR17L, read-out: EC50, reversal of inhibition of forskolin-stimulated cAMP at higher concentrations): 12000 nM
Predicted (LS) mean diff. (hGPR17L; log [MDL29,951] (M) -4.0 vs. Vehicle, +100 nM YM-254890): -29.51
Predicted (LS) mean diff. (hGPR17L; log [MDL29,951] (M) -4.0 vs. Vehicle, +100 ng/mL PTX): 28.26
Predicted (LS) mean diff. (hGPR17L; log [MDL29,951] (M) -4.0 vs. Vehicle, +Vehicle): -12.1
Predicted (LS) mean diff. (hGPR17L; log [MDL29,951] (M) -4.6 vs. Vehicle, +100 nM YM-254890): -35.09
Predicted (LS) mean diff. (hGPR17L; log [MDL29,951] (M) -4.6 vs. Vehicle, +100 ng/mL PTX): 20.2
Predicted (LS) mean diff. (hGPR17L; log [MDL29,951] (M) -4.6 vs. Vehicle, +Vehicle): -15.6
Predicted (LS) mean diff. (hGPR17L; log [MDL29,951] (M) -5.2 vs. Vehicle, +100 nM YM-254890): -39.39
Predicted (LS) mean diff. (hGPR17L; log [MDL29,951] (M) -5.2 vs. Vehicle, +100 ng/mL PTX): 8.85
Predicted (LS) mean diff. (hGPR17L; log [MDL29,951] (M) -5.2 vs. Vehicle, +Vehicle): -22.36
Predicted (LS) mean diff. (hGPR17L; log [MDL29,951] (M) -5.8 vs. Vehicle, +100 nM YM-254890): -44.26
Predicted (LS) mean diff. (hGPR17L; log [MDL29,951] (M) -5.8 vs. Vehicle, +100 ng/mL PTX): -1.585
Predicted (LS) mean diff. (hGPR17L; log [MDL29,951] (M) -5.8 vs. Vehicle, +Vehicle): -32.92
Predicted (LS) mean diff. (hGPR17L; log [MDL29,951] (M) -6.4 vs. Vehicle, +100 nM YM-254890): -39.29
Predicted (LS) mean diff. (hGPR17L; log [MDL29,951] (M) -6.4 vs. Vehicle, +100 ng/mL PTX): -7.715
Predicted (LS) mean diff. (hGPR17L; log [MDL29,951] (M) -6.4 vs. Vehicle, +Vehicle): -33.45
Predicted (LS) mean diff. (hGPR17L; log [MDL29,951] (M) -7.0 vs. Vehicle, +100 nM YM-254890): -30.32
Predicted (LS) mean diff. (hGPR17L; log [MDL29,951] (M) -7.0 vs. Vehicle, +100 ng/mL PTX): -2.207
Predicted (LS) mean diff. (hGPR17L; log [MDL29,951] (M) -7.0 vs. Vehicle, +Vehicle): -27.4
Predicted (LS) mean diff. (hGPR17L; log [MDL29,951] (M) -7.6 vs. Vehicle, +100 nM YM-254890): -16.56
